Experimental findings from publication PMC10309634, “Computer simulation approach to the identification of visfatin-derived angiogenic peptides” (PLOS ONE, 2023) are described below.

Common to all, as to assay type: cell-based, human
Data set [1] deals with HUVECs. Nature of the data set: MTT cell cytotoxicity assay. The settings on record: MTT, 0.1, 0.5, 1.0 and 2.0 μM, 24 hours, triplicate. The method, then:
HUVECs were grown in EGM-2 supplemented with an EGM-2 Supplement Mix® (PromoCell) containing 2% FBS at a density of 1×10^4 cells in 96-well plates (SPL Inc., Gyeonggido, Korea). After 24 hours, the cells were treated with 1000ng/ml visfatin (Adipogen Life Science) and various concentrations of visfatin-derived peptides (0.1, 0.5, 1.0, and 2.0 μM), and then incubated overnights in an atmosphere of 5% CO2. The 3-(4,5-Dimethylthiazol-2-yl)-2,5-diphenyltetrazolium bromide (MTT) assay reagents (Sigma-Aldrich, St. Louis, MO, USA) were as added directly to each well to a final concentration of 0.5 mg/ml. After 4 hours, the medium was removed, the formazan crystals formed in the cells were dissolved in DMSO, and the absorbance of the formazan solution was measured using a Synergy HTX Multi-Mode Reader (BIO-TEK, Vermont, USA) with a 540 nm filter. Each sample was assayed in triplicate.
In general terms: Formazan colour is commonly taken as a measure of viable cells.

Data set [2] deals with HUVECs. As to the kind of experiment: In vitro trans-well invasion assay. The settings on record: 24 hours, Matrigel-coated trans-well, compared to the control and visfatin-treated groups. Here is the method: The invasion capacity of the cells was determined using a 24-well trans-well system. The upper side of the trans-well membrane was coated with 1 mg/mL Matrigel at 10 μL/well at room temperature for 1 hour. The EGM-2 medium (0.5 ml)was added to the lower part of trans-well chamber. HUVECs (2×10^4 cells) and EGM medium (0.1 ml) were placed on the upper compartment of the trans-well. And then b-FGF (25ng/ml), visfatin (1000 ng/ml), and visfatin-derived peptides (0.5μM and 2.0μM) were added to the upper compartment of the trans-well. Cells were incubated at 37°C and 5% CO2 for 24 hours, fixed with methanol, and stained with hematoxylin and eosin. The cells on the upper surface of the membrane were removed by wiping with a cotton swab. Cell invasion was determined by counting the number of whole cells in a single filter using optical microscopy at 40× magnification. Each sample was assayed in duplicate, and independent experiments were repeated three times.

The test system of data set [3] is HUVECs. Nature of the data set: In vitro wound healing migration assay. The settings on record: 18 h, scratch wound, compared to the control group. Here is the method: HUVECs were seeded in 24-well plates (SPL) at a density of 2×10^5 cells and incubated in EGM medium supplemented with EGM-Supplement Mix® containing 1% FBS overnight. Cells were scratched using a P200 pipette tip to induce a wound. Subsequently, then b-FGF (25ng/ml), visfatin (1000 ng/ml), and visfatin-derived peptides (0.5μM and 2.0μM) were added and the culture was maintained for 18 hours to allow the cells to migrate. The migration patterns were observed using a phase-contrast microscope and images were captured. The wound diameters were photographed at 16–24 hours. Wound closure was determined using optical microscopy at 40× magnification. Migration was quantified by counting the number of cells that had moved beyond the reference line.

The subject of data set [4] is HUVECs. As to the kind of experiment: In vitro tube formation assay on Matrigel. Conditions: 4 hours on Matrigel. Here is the method: HUVECs (2×10^4 cells/well) were seeded on a layer of polymerized Matrigel and treated with or without visfatin-derived peptides. The Matrigel culture was incubated at 37°C in the EGM supplemented with EGM-Supplement Mix® containing 1% FBS. After 4 hours, changes in the cell morphology were observed using a phase-contrast microscope and photographed at 40× magnification. Each sample was assayed in duplicate, and independent experiments were repeated three times. Angiogenesis was analyzed with ImageJ software using an angiogenesis analyzer (Bethesda, MD, USA).

The subject of the next data set is visfatin mRNA expression. Nature of the data set: RT-qPCR of visfatin mRNA in HUVECs. The settings on record: 24 hours, RT-qPCR vs GAPDH, compared to the control group. The method, then: (§1) After treating HUVECs with visfatin-derived peptides for 24 hours, the total RNA was isolated from the cultured HUVECs using the Tri-RNA reagent (Favorgen Biotech Corp., Kaohsiung, Taiwan) according to the manufacturer’s instructions. cDNA was synthesized from 1 μg of total RNA using the iScript^TM cDNA Synthesis Kit (Bio-Rad Laboratories, Inc., Hercules, CA, USA). The mRNA expression levels of VEGF and visfatin were carried out using Applied Biosystems 7500 software (Applied Biosystems Inc., Waltham, MA, USA). Real-time PCR was performed using SYBR Green Q-PCR Master Mix (Samjung Bio Science, Daejeon, South Korea). The reaction conditions were as follows: initial denaturation at 95°C for 5 min, amplification at 95°C for 15 sec, and at 60°C for 1 min. All PCR amplifications were performed for 40 cycles. The specific primers used were as follows: 5’-[…]-3’ (forward) and 5’-GTG ATGGCATGGACTGTGGT-3’ (reverse) for glyceraldehyde-3-phosphate dehydrogenase (GAPDH); 5’-GGAGG GTGACGGGGTGAAGG-3’ (forward) and 5’-[…]-3’ (reverse) for visfatin; and 5’-[…]-3’ (forward) and 5’-[…]-3’ (reverse) for VEGF-A. The relative changes in the gene expression were determined using the 2^-ΔΔCt method and the results were normalized to the expression of GAPDH.
For orientation: In qPCR the cycle at which signal appears reflects the starting amount.

In the next data set the test system is VEGF-A mRNA expression. As to the kind of experiment: RT-qPCR of VEGF-A mRNA in HUVECs. Conditions: 24 hours, RT-qPCR vs GAPDH, compared to the control group. Here is the method: as §1

As to “EYKLHDFGYRGV [Peptide-2, visfatin-derived peptide … (12AA), synthesised by GL Biochem]”, in the data set on HUVECs [1], the “cytotoxic effect / viability of HUVECs” value was “no cytotoxic effect”. For the same substance, in the data set on HUVECs [2] (2.0 μM), the “increase of cell invasion” value is listed as “more than two-fold”. Also, the “increase in cell migration” value in the data set with HUVECs [3] (2.0 μM) is “two-fold increase”. In the data set on HUVECs [4] (0.5 μM, vs control), the “number of master junctions” value is given as “significantly increased”. Besides, the number of meshes entry in the data set on HUVECs [4] (0.5 μM, vs control) is “significantly increased”. Moreover, the “mRNA expression of visfatin” value in the data set on visfatin mRNA expression (0.5 μM) and in the data set with visfatin mRNA expression (2.0 μM) was “significantly increased” throughout. Further, the “mRNA expression of VEGF-A” value with VEGF-A mRNA expression (0.5 μM) is recorded as “significantly increased”; with VEGF-A mRNA expression (2.0 μM), “remarkably increased”.

Turning to “LEYKLHDFGY [Peptide-1, visfatin-derived peptide […]; (10AA), synthesised by GL Biochem]”, the “cytotoxic effect / viability of HUVECs” value with HUVECs [1] is listed as “no cytotoxic effect”. In addition, the “increase of cell invasion” value with HUVECs [2] (0.5 μM) is reported as “more than two-fold”. For the same substance, in the data set with HUVECs [3] (0.5 μM), the “increase in cell migration” value is reported as “two-fold increase”. Further, the “number of master junctions” value with HUVECs [4] (0.5 μM, vs control) is “significantly increased”; in the data set with HUVECs [4] (2.0 μM, vs control), “significantly increased”. For the same substance, the number of meshes result with HUVECs [4] (0.5 μM, vs control) was “significantly increased”. Moreover, the “mRNA expression of visfatin” value in the data set on visfatin mRNA expression (0.5 μM) is reported as “significantly increased”; in the data set on visfatin mRNA expression (2.0 μM), “did not increase”. Further, the “mRNA expression of VEGF-A” value in the data set with VEGF-A mRNA expression (0.5 μM) was “significantly increased”; in the data set with VEGF-A mRNA expression (2.0 μM) it was “did not increase”.

On to “b-FGF: recombinant human basic fibroblast growth factor, positive control”, for which the number of meshes result in the data set on HUVECs [4] (positive controls, compared to the control group) is given as “not significantly different”.
